Assay: xn = mol fraction of the nth substance listed
Conditions: 100 kPa, Liquid; for viscosity: Falling or rolling sphere viscometry; for mass density: Vibrating tube method

C1CCC(C2CCCCC2)CC1 [1,1'-bicyclohexyl] + CCCCCCCCCCCC
Conditions	mass density [kg/m3]	viscosity [mPa·s]
293.15 K, x2 = 0	886.05	4.003
293.15 K, x2 = 0.1055	869.17	3.406
293.15 K, x2 = 0.2016	854.56	3
293.15 K, x2 = 0.3019	839.7	2.637
293.15 K, x2 = 0.398	825.91	2.369
293.15 K, x2 = 0.5006	811.71	2.166
293.15 K, x2 = 0.5953	798.95	1.998
293.15 K, x2 = 0.6911	786.49	1.839
293.15 K, x2 = 0.7985	772.97	1.697
293.15 K, x2 = 0.8888	761.97	1.62
298.15 K, x2 = 0	882.44	3.53
298.15 K, x2 = 0.1055	865.58	3.025
298.15 K, x2 = 0.2016	850.98	2.681
298.15 K, x2 = 0.3019	836.11	2.366
298.15 K, x2 = 0.398	822.33	2.136
298.15 K, x2 = 0.5006	808.14	1.955
298.15 K, x2 = 0.5953	795.38	1.811
298.15 K, x2 = 0.6911	782.91	1.672
298.15 K, x2 = 0.7985	769.38	1.548
298.15 K, x2 = 0.8888	758.37	1.466
303.15 K, x2 = 0	878.84	3.137
303.15 K, x2 = 0.1055	861.99	2.706
303.15 K, x2 = 0.2016	847.4	2.411
303.15 K, x2 = 0.3019	832.52	2.138
303.15 K, x2 = 0.398	818.74	1.938
303.15 K, x2 = 0.5006	804.55	1.777
303.15 K, x2 = 0.5953	791.78	1.652
303.15 K, x2 = 0.6911	779.31	1.529
303.15 K, x2 = 0.7985	765.77	1.417
303.15 K, x2 = 0.8888	754.75	1.331
308.15 K, x2 = 0	875.25	2.81
308.15 K, x2 = 0.1055	858.41	2.438
308.15 K, x2 = 0.2016	843.81	2.182
308.15 K, x2 = 0.3019	828.94	1.943
308.15 K, x2 = 0.398	815.15	1.766
308.15 K, x2 = 0.5006	800.96	1.624
308.15 K, x2 = 0.5953	788.19	1.513
308.15 K, x2 = 0.6911	775.71	1.405
308.15 K, x2 = 0.7985	762.15	1.305
308.15 K, x2 = 0.8888	751.13	1.223
313.15 K, x2 = 0	871.66	2.532
313.15 K, x2 = 0.1055	854.82	2.209
313.15 K, x2 = 0.2016	840.23	1.985
313.15 K, x2 = 0.3019	825.35	1.776
313.15 K, x2 = 0.398	811.56	1.618
313.15 K, x2 = 0.5006	797.36	1.492
313.15 K, x2 = 0.5953	784.58	1.393
313.15 K, x2 = 0.6911	772.09	1.298
313.15 K, x2 = 0.7985	758.53	1.206
313.15 K, x2 = 0.8888	747.5	1.131
318.15 K, x2 = 0	868.08	2.296
318.15 K, x2 = 0.1055	851.24	2.012
318.15 K, x2 = 0.2016	836.64	1.815
318.15 K, x2 = 0.3019	821.76	1.629
318.15 K, x2 = 0.398	807.96	1.489
318.15 K, x2 = 0.5006	793.76	1.377
318.15 K, x2 = 0.5953	780.98	1.288
318.15 K, x2 = 0.6911	768.48	1.203
318.15 K, x2 = 0.7985	754.91	1.119
318.15 K, x2 = 0.8888	743.86	1.05
323.15 K, x2 = 0	864.5	2.092
323.15 K, x2 = 0.1055	847.66	1.842
323.15 K, x2 = 0.2016	833.06	1.667
323.15 K, x2 = 0.3019	818.17	1.501
323.15 K, x2 = 0.398	804.36	1.376
323.15 K, x2 = 0.5006	790.16	1.275
323.15 K, x2 = 0.5953	777.36	1.195
323.15 K, x2 = 0.6911	764.85	1.119
323.15 K, x2 = 0.7985	751.27	1.041
323.15 K, x2 = 0.8888	740.21	0.978
328.15 K, x2 = 0	860.93	1.915
328.15 K, x2 = 0.1055	844.08	1.693
328.15 K, x2 = 0.2016	829.47	1.536
328.15 K, x2 = 0.3019	814.58	1.389
328.15 K, x2 = 0.398	800.76	1.276
328.15 K, x2 = 0.5006	786.54	1.184
328.15 K, x2 = 0.5953	773.74	1.112
328.15 K, x2 = 0.6911	761.22	1.043
328.15 K, x2 = 0.7985	747.63	0.973
328.15 K, x2 = 0.8888	736.56	0.914
333.15 K, x2 = 0	857.35	1.762
333.15 K, x2 = 0.1055	840.5	1.563
333.15 K, x2 = 0.2016	825.89	1.423
333.15 K, x2 = 0.3019	810.98	1.288
333.15 K, x2 = 0.398	797.16	1.186
333.15 K, x2 = 0.5006	782.93	1.104
333.15 K, x2 = 0.5953	770.11	1.039
333.15 K, x2 = 0.6911	757.59	0.976
333.15 K, x2 = 0.7985	743.98	0.91
333.15 K, x2 = 0.8888	732.9	0.856

Reference: the NIST ThermoML archive (doi:10.1021/acs.jced.8b00438)
